Type in all cases: cell-based
For assay [1], the system named is PC3 (ATCC CRL1435, human prostate carcinoma). The assay is described as follows: XTT cytotoxicity assay, PC3 cells. The settings on record: PC-3, 48 h, 2 days of continuous drug exposure. As to the method:
Human tumor cell lines KB/HeLa (ATCC CCL17, human cervix carcinoma), PC3 (ATCC CRL1435, human prostate carcinoma) and RKOp21 (human colon adenocarcinoma) cells were used in an automated XTT screening assay for the assessment of cytotoxicity.
The XTT assay quantifies cellular metabolic activity which correlates with cell viability and cell number. Test compounds (selected compounds of the invention and known substances as controls) are dissolved in culture medium at 600µM and added to the tumor cells in 10 different concentrations in a semi-logarithmic fashion starting from 100 µM as highest concentration.
48h later cellular metabolic activity of cells treated with test compounds is quantified by measurement of the absorbance at 490nm (conversion of XTT dye) in comparison to untreated control cells (100% viability).
KB/HeLa and PC3 cells were cultivated in RPMI medium supplemented with 10% heat inactivated fetal calf serum, 2 mM glutamine, 100 U/ml penicillin, and 100 µg/ml streptomycin. RKOp21 cells were grown in DMEM supplemented with 10% heat inactivated fetal calf serum, 2 mM glutamine, 100 U/ml penicillin, and 100 µg/ml streptomycin. All cells were cultured at 37°C in 5% CO2 humidified air.
On the first day of the experiment cells were harvested from exponential phase cultures by trypsination, counted and plated into 96 well flat-bottom micro titer plates depending on the cell line as listed below:
After a 24h recovery to allow the cells to resume exponential growth, the test compounds were diluted immediately prior to use and transferred in 25µl volume to the wells.
Following 2 days of continuous drug exposure 50µl of freshly prepared XTT-PMS solution (2% […] PMS in PBS + 98% 1 mg/ml XTT in RPMI 1640 without phenol red) was added to the wells. To measure the proportion of living cells, the cells were incubated for 3 h with XTT-PMS reagent at 37°C, 5% CO2, humidified atmosphere allowing to form the formazan salt. The amount of soluble formazan salt produced by cellular reduction of XTT is quantified by measuring the absorbance at 490nm using the Biomek® 2000 ELISA plate reader.
%-inhibition (cytotoxicity) of each test compound was calculated in relation to untreated control cells. Inhibition curves were generated and IC50 values calculated by using GraphPad Prism.
(Formazan colour is commonly taken as a measure of viable cells.)

Assay [2] deals with Candida parapsilosis (ATCC 22019). The assay is described as follows: Anti-fungal susceptibility test (microdilution), fungus D. Particulars: ATCC22019, no visible growth after 48 hours at 35° C, read-out: MIC. As for the experimental part:
(§1) The antifungal activities of the test compounds (compounds of the invention and known prior art compounds) were measured according to standard microdilution methods (Cryptococcus/Aspergillus: Ghannoum et al., Journal of Clinical Microbiology 1992, 30 (11): 2881-2886; Candida: Reference method for broth dilution susceptibility testing of yeast: proposed standard, NCCLS document M27-P, National Committee for Clinical Laboratory Standards 1992, Villanova, Pa).
(§2) A serial dilution series starting from 64 µg/mL test compound per well down to 0.125 µg/mL test compound per well was applied for each test compound on each fungus. The MIC of each compound was defined as the concentration which produces no visible growth after 48 hours (Candida) and 72 hours (Cryptococcus, Aspergillus) of culture at 35° C.
(§3) The following fungi were assessed: • A) Candida albicans (ATCC 10231) • B) Candida albicans (ATCC 90028) • C) Candida albicans (strain TS3, Shrikantha et al., Journal of Bacteriology 2000, 182(6):1580-1591) • D) Candida parapsilosis (ATCC 22019) • E) Cryptocoocus neoformans (ATCC 90112) • F) Cryptocoocus neoformans (strain H99; Ganendren et al., Antimicrobial Agents and Chemotherapy, 2004, 48(5):1561-1569) • G) Cryptocoocus gattii (ATCC 32608) • H) Aspergillus fumigatus (ATCC 204305) • I) Aspergillus fumigatus (strain 322-384)

Assay [3] relates to Aspergillus fumigatus (ATCC 204305). The assay is described as follows: Anti-fungal susceptibility test (microdilution), fungus H. Particulars: Aspergillus fumigatus, ATCC204305, no visible growth after 72 hours at 35° C, read-out: MIC. As to the method: as §1, §2, §3
Assay [4] relates to Trypanosoma cruzi (Tulahuan-LACZ amstigotes in PEM). The assay is described as follows: In vitro drug activity assay, protozoon A (amastigotes in murine peritoneal macrophages, CPRG readout). The settings on record: infected macrophages exposed for 3 days. As to the method:
Murine (CD1) peritoneal macrophages were harvested 24 hours after starch induction and dispensed into 96-well plates at a concentration of 4 x 10^5 mL. After 24 hours, the cells were infected with Trypanosoma cruzi Tulahuan LAC-Z amastigotes (grown and cultured according to Buckner et al., Infection and Immunity 1999, 67(1): 403-409). 24 hours later, the infected cells were exposed to the test compounds (compounds of the invention as well as known prior art compounds) for 3 days and 50 µL of 500 µM CPRG-1% Nonidet P-40 was added to each well. The plates were read after 2 to 5 hours at 570 nm (Buckner et al., Antimicrobial Agents and Chemotherapy 1996, 40(11): 2592-2597). ED50 values were calculated with Msxlfit (IDBS).
(§4) The following protozoa were assessed: • A) Trypanosoma cruzi (Tulahuan-LACZ amstigotes in PEM, Lorente SO et al., Antimicrobial agents and chemotherapy 2004, 48(8): 2937-2950; Buckner et al., Infection and Immunity 1999, 67(1): 403-409; Buckner et al., Antimicrobial Agents and Chemotherapy 1996, 40(11): 2592-2597) • B) Trypanosoma brucei rhodesiense (strain STIB900, Lorente SO et al., Antimicrobial agents and chemotherapy 2004, 48(8): 2937-2950; Habtemariam S, BMC Pharmacology 2003, 3:6) • C) Plasmodium falciparum (strain K1, Korsinczky M et al., Antimicrobial agents and chemotherapy 2000, 44(8): 2100-2108; Thaitong S and Beale GH, Trans. R. Soc. Trop. Med. Hyg. 1981, 75: 271-273; Trager W and Jensen JB, Science 1976, 193: 673-675) • D) Plasmodium falciparum (strain 3D7, Mu et al., PLoS Biology 2005, 3(10): e335)

Assay [5] concerns Trypanosoma brucei rhodesiense (strain STIB900). The assay is described as follows: In vitro drug activity assay, protozoon B (bloodstream form trypomastigotes, Alamar Blue). Particulars: incubated for 72 hours. As to the method: Trypanosoma brucei rhodesiense STIB900 bloodstream form trypomastigotes were maintained in HMI-18 medium (Hirumi H, Hirumi K, J Parasitol. 1989, 75(6):985-989) with 15% heat-inactivated fetal calf serum at 37°C, 5% CO2, humidified atmosphere. Trypomastigotes were washed and resuspended in fresh medium at a concentration of 2 x 10^5 mL. Test compounds were given to the trypomastigotes and plates were incubated for 72 hours at 37°C, 5% CO2, humidified atmosphere. At 72 hours the plates were assessed microscopically before Alamar Blue was added (Raz et al., Acta Trop. 1997, 68: 139-147). Plates were read after 5 to 6 hours at EX/EM 530/585 nm with a filter cutoff at 550 nm. ED50 values were calculated with Msxlfit (IDBS).
as §4
Background: The colour change of resazurin is a common sign of viable cells or microbes.

Converted amounts (≈) assume the structure as drawn.

Usually IC50 stands for the concentration needed to halve the response being measured. By MIC is commonly meant the smallest concentration in the dilution series that meets the test's criterion for growth inhibition. The compound `CCCCCCCCCCCCCCCCOP(=O)([O-])OCC[N+]1(C)CCCCC1` [Compound 2, Phosphoric acid 2-(1-methyl-piperidin-1-yl)-ethyl ester hexadecyl ester] gave an IC50 in assay [1] of 19.6 µM. Besides, the MIC in assay [2] and in assay [3] was 2 µg/mL (≈ 4.47 µM) throughout. The “ED50 (µg/mL)” value in assay [4] was 0,50 µg/mL; in assay [5] it was 17,50 µg/mL.

Values taken from patent publication EP1800684A1, “Novel alkyl phospholipid derivatives and uses thereof” (Zentaris GmbH, priority 2005, dated 2007).
